Results as given in patent US8119628B2, “Pyrrolidine fused indolobenzadiazepine HCV NS5B inhibitors” (Bristol-Myers Squibb Company, priority 2008, dated 2012).

Columns and labels:
HCV replicon cells = assay: HCV FRET assay in HCV replicon cells; type: cell-based; conditions: Hepatitis C virus
Source text: FRET Assay Preparation. To perform the HCV FRET screening assay, 96-well cell culture plates were used. The FRET peptide (Anaspec, Inc.) (Taliani et al., Anal. Biochem. 1996, 240, 60-67) contains a fluorescence donor, EDANS, near one end of the peptide and an acceptor, DABCYL, near the other end. The fluorescence of the peptide is quenched by […] resonance energy transfer (RET) between the donor and the acceptor, but as the NS3 protease cleaves the peptide the products are released from RET quenching and the fluorescence of the donor becomes apparent. The assay reagent was made as follows: 5× cell Luciferase cell culture lysis reagent from Promega (#E153A) diluted to 1× with dH2O, NaCl added to 150 mM final, the FRET peptide diluted to 20 uM final from a 2 mM stock.
To prepare plates, HCV replicon cells, with or without a Renilla luciferase reporter gene, were trypsinized and placed into each well of a 96-well plate with titrated test compounds added in columns 3 through 12; columns 1 and 2 contained a control compound (HCV protease inhibitor), and the bottom row contained cells without compound. The plates were then placed in a CO2 incubator at 37° C.
Assays. Subsequent to addition of the test compounds described above (FRET Assay Preparation), at various times the plate was removed and Alamar blue solution (Trek Diagnostics, #00-100) was added per well as a measure of cellular toxicity. After reading in a Cytoflour 4000 instrument (PE Biosystems), plates were rinsed with PBS and then used for FRET assay by the addition of 30 ul of the FRET peptide assay reagent described above (FRET Assay Preparation) per well. The plate was then placed into the Cytoflour 4000 instrument which had been set to 340 excite/490 emission, automatic mode for 20 cycles and the plate read in a kinetic mode. Typically, the signal to noise using an endpoint analysis after the reads was at least three-fold. Alternatively, after Alamar blue reading, plates were rinsed with PBS, 50 ul of DMEM (high glucose) without phenol red was added and plates were then used for luciferase assay using the Promega Dual-Glo Luciferase Assay System.
Compound analysis was determined by quantification of the relative HCV replicon inhibition and the relative cytotoxicity values. To calculate cytoxicity values, the average Alamar Blue fluorescence signals from the control wells were set as 100% non-toxic. The individual signals in each of the compound test wells were then divided by the average control signal and multiplied by 100% to determine […]. To calculate the HCV replicon inhibition values, an average background value was obtained from the two wells containing the highest amount of HCV protease inhibitor at the end of the assay period. These numbers were similar to those obtained from naïve Huh-7 cells.
The background numbers were then subtracted from the average signal obtained from the control wells and this number was used as 100% activity. The individual signals in each of the compound test wells were then divided by the averaged control values after background subtraction and multiplied by 100% to determine percent activity. EC50 values for a protease inhibitor titration were calculated as the concentration which caused a 50% reduction in FRET or luciferase activity. The two numbers generated for the compound plate, percent cytoxicity and percent activity were used to determine compounds of interest for further analysis.

HCV NS5B = molecular target: T1, HCV NS5B (Hepatitis C virus genotype 1b, UniProt Q9WMX2); assay: Modified HCV NS5B RdRp enzyme assay (preincubation protocol); type: biochemical; conditions: HCV NS5B RdRp genotype 1b
T1 construct: The protein was expressed with an 18 amino acid C-terminal truncation to enhance the solubility; made in house; host or cells: E. coli BL21(DE3)
T1 sequence (Q9WMX2 2420-2992): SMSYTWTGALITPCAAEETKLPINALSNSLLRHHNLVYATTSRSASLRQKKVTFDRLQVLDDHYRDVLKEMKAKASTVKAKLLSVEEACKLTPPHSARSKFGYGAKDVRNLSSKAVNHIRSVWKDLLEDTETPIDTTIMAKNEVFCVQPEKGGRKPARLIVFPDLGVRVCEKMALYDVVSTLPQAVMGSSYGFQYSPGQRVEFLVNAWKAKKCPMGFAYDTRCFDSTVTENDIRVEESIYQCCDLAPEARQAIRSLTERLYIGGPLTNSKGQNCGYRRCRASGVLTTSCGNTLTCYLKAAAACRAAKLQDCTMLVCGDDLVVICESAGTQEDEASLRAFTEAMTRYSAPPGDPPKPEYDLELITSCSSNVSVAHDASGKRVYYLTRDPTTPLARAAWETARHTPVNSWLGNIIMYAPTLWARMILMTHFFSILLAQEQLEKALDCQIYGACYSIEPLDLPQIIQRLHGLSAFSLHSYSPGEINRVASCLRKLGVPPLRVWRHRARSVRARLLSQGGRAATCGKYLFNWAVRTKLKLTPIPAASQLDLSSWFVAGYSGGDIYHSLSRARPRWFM
Experimental: HCV NS5B RdRp cloning, expression, and purification. The cDNA encoding the NS5B protein of HCV, genotype 1b, was cloned into the pET21a expression vector. The protein was expressed with an 18 amino acid C-terminal truncation to enhance the solubility. The E. coli competent cell line BL21(DE3) was used for expression of the protein. Cultures were grown at 37° C. for ˜4 hours until the cultures reached an optical density of 2.0 at 600 nm. The cultures were cooled to 20° C. and induced with 1 mM IPTG. Fresh ampicillin was added to a final concentration of 50 μg/ml and the cells were grown overnight at 20° C.
Cell pellets (3 L) were lysed for purification to yield 15-24 […] of purified NS5B. The lysis buffer consisted of 20 mM Tris-HCl, pH 7.4, 500 mM NaCl, 0.5% triton X-100, 1 mM DTT, 1 mM EDTA, 20% glycerol, 0.5 mg/ml lysozyme, 10 mM MgCl2, 15 ug/ml deoxyribonuclease I, and Complete TM protease inhibitor tablets (Roche). After addition of the lysis buffer, frozen cell pellets were resuspended using a tissue homogenizer. To reduce the viscosity of the sample, aliquots of the lysate were sonicated on ice using a microtip attached to a Branson sonicator. The sonicated lysate was centrifuged at 100,000×g for 1 hr at 4° C. and filtered through a 0.2 μm filter unit (Corning).
The protein was purified using three sequential chromatography steps: Heparin sepharose CL-6B, polyU sepharose 4B, and Hitrap SP sepharose (Pharmacia). The chromatography buffers were identical to the lysis buffer but contained no lysozyme, deoxyribonuclease I, MgCl2 or protease inhibitor and the NaCl concentration of the buffer was adjusted according to the requirements for charging the protein onto the column. Each column was eluted with a NaCl gradient which varied in length from 5-50 column volumes depending on the column type. After the final chromatography step, the resulting purity of the enzyme is >90% based on SDS-PAGE analysis. The enzyme was aliquoted and stored at −80° C.
Standard HCV NS5B RdRp enzyme assay. HCV RdRp genotype 1b assays were run in a final volume of 60 μl in 96 well plates (Costar 3912). The assay buffer is composed of 20 mM Hepes, pH 7.5, 2.5 mM KCl, 2.5 mM MgCl2, 1 mM DTT, 1.6 U RNAse inhibitor (Promega N2515), 0.1 mg/ml BSA (Promega R3961), and 2% glycerol. All compounds were serially diluted (3-fold) in DMSO and diluted further in water such that the final concentration of DMSO in the assay was 2%. HCV RdRp genotype 1b enzyme was used at a final concentration of 28 nM. A polyA template was used at 6 nM, and a biotinylated oligo-dT12 primer was used at 180 nM final concentration. Template was obtained commercially (Amersham 27-4110). Biotinylated primer was prepared by Sigma Genosys. 3H-UTP was used at 0.6 μCi (0.29 μM total UTP). Reactions were initiated by the addition of enzyme, incubated at 30° C. for 60 min, and stopped by adding 25 μl of 50 mM EDTA containing SPA beads (4 μg/μl, Amersham RPNQ 0007). Plates were read on a Packard Top Count NXT after >1 hr incubation at room temperature.
Modified HCV NS5B RdRp enzyme assay. A modified enzyme assay was performed essentially as described for the standard enzyme assay except for the following: The biotinylated oligo dTl2 primer was precaptured on streptavidin-coated SPA beads by mixing primer and beads in assay buffer and incubating at room temperature for one hour. Unbound primer was removed after centrifugation. The primer-bound beads were resuspended in 20 mM Hepes buffer, pH 7.5 and used in the assay at final concentrations of 20 nM primer and […] beads. Order of addition in the assay: enzyme (14 nM) was added to diluted compound followed by the addition of a mixture of template (0.2 nM), 3H-UTP (0.6 μCi, 0.29 μM), and primer-bound beads, to initiate the reaction; concentrations given are final. Reactions were allowed to proceed for 4 hours at 30° C.
IC50 values for compounds were determined using seven different. […]

Compound: COc1ccc2c(c1)C1CN(Cc3ccccc3)CC1(C(=O)N1C[C@@H](C)O[C@@H](C)C1)Cn1c-2c(C2CCCCC2)c2ccc(C(=O)NS(=O)(=O)N(C)C)cc21 (mixture of isomers) [Example 1, rac-(3aR,14bR)-2-benzyl-10-cyclohexyl-3a-(((2S,6R)-2,6-dimethyl-4-morpholinyl)carbonyl)-N-(dimethylsulfamoyl)-13-methoxy-1,2,3,3a,4,14b-hexahydroindolo[2,1-a]pyrrolo[3,4-d][2]benzazepine-7-carboxamide]
- EC50 (HCV replicon cells): 0.21 µM
- IC50 (HCV NS5B): 0.43 µM

Compound: COc1ccc2c(c1)C1CNCC1(C(=O)N1C[C@@H](C)O[C@@H](C)C1)Cn1c-2c(C2CCCCC2)c2ccc(C(=O)NS(=O)(=O)N(C)C)cc21 (mixture of isomers) [Example 2, rac-(3aR,14bR)-10-cyclohexyl-3a-(((2S,6R)-2,6-dimethyl-4-morpholinyl)carbonyl)-N-(dimethylsulfamoyl)-13-methoxy-1,2,3,3a,4,14b-hexahydroindolo[2,1-a]pyrrolo[3,4-d][2]benzazepine-7-carboxamide]
- EC50 (HCV replicon cells; reported as class): 0.02 to 0.5 µM
- IC50 (HCV NS5B; reported as class): 0.02 to 0.5 µM

Compound: COc1ccc2c(c1)C1CN(C)CC1(C(=O)N1C[C@@H](C)O[C@@H](C)C1)Cn1c-2c(C2CCCCC2)c2ccc(C(=O)NS(=O)(=O)N(C)C)cc21 (mixture of isomers) [Example 3, rac-(3aR,14bR)-10-Cyclohexyl-3a-(((2S,6R)-2,6-dimethyl-4-morpholinyl)carbonyl)-N-(dimethylsulfamoyl)-13-methoxy-2-methyl-1,2,3,3a,4,14b-hexahydroindolo[2,1-a]pyrrolo[3,4-d][2]benzazepine-7-carboxamide]
- EC50 (HCV replicon cells; reported as class): 0.02 to 0.5 µM
- IC50 (HCV NS5B; reported as class): 0.02 to 0.5 µM

Compound: COc1ccc2c(c1)C1CN(C(C)=O)CC1(C(=O)N1C[C@@H](C)O[C@@H](C)C1)Cn1c-2c(C2CCCCC2)c2ccc(C(=O)NS(=O)(=O)N(C)C)cc21 (mixture of isomers) [Example 4, rac-(3aR,14bR)-2-Acetyl-10-cyclohexyl-3a-(((2S,6R)-2,6-dimethyl-4-morpholinyl)carbonyl)-N-(dimethylsulfamoyl)-13-methoxy-1,2,3,3a,4,14b-hexahydroindolo[2,1-a]pyrrolo[3,4-d][2]benzazepine-7-carboxamide]
- EC50 (HCV replicon cells; reported as class): 0.02 to 0.5 µM
- IC50 (HCV NS5B; reported as class): 0.02 to 0.5 µM

Compound: COc1ccc2c(c1)C1CN(C(C)C)CC1(C(=O)N1C[C@@H](C)O[C@@H](C)C1)Cn1c-2c(C2CCCCC2)c2ccc(C(=O)NS(=O)(=O)N(C)C)cc21 (mixture of isomers) [Example 5, rac-(3aR,14bR)-10-Cyclohexyl-3a-(((2S,6R)-2,6-dimethyl-4-morpholinyl)carbonyl)-N-(dimethylsulfamoyl)-2-isopropyl-13-methoxy-1,2,3,3a,4,14b-hexahydroindolo[2,1-a]pyrrolo[3,4-d][2]benzazepine-7-carboxamide]
- EC50 (HCV replicon cells): 0.12 µM
- IC50 (HCV NS5B): 0.2 µM

Compound: COc1ccc2c(c1)C1CN(Cc3ccccc3)CC1(C(=O)N(C)C)Cn1c-2c(C2CCCCC2)c2ccc(C(=O)NS(=O)(=O)N(C)C)cc21 (racemic) [Example 6, rac-(3aR,14bR)-2-benzyl-10-cyclohexyl-N^7-(dimethylsulfamoyl)-13-methoxy-N^3a,N^3a-dimethyl-1,2,3,14b-tetrahydroindolo[2,1-a]pyrrolo[3,4-d][2]benzazepine-3a,7(4H)-dicarboxamide]
- EC50 (HCV replicon cells; reported as class): 0.02 to 0.5 µM
- IC50 (HCV NS5B; reported as class): 0.02 to 0.5 µM

Compound: COc1ccc2c(c1)C1CNCC1(C(=O)N(C)C)Cn1c-2c(C2CCCCC2)c2ccc(C(=O)NS(=O)(=O)N(C)C)cc21 (racemic) [Example 7, rac-(3aR,14bR)-10-cyclohexyl-N^7-(dimethylsulfamoyl)-13-methoxy-N^3a,N^3a-dimethyl-1,2,3,14b-tetrahydroindolo[2,1-a]pyrrolo[3,4-d][2]benzazepine-3a,7(4H)-dicarboxamide]
- EC50 (HCV replicon cells): 0.022 µM
- IC50 (HCV NS5B): 0.041 µM

Compound: COc1ccc2c(c1)C1CN(C(=O)N(C)C)CC1(C(=O)N(C)C)Cn1c-2c(C2CCCCC2)c2ccc(C(=O)NS(=O)(=O)N(C)C)cc21 (racemic) [Example 8, rac-(3aR,14bR)-10-cyclohexyl-N^7-(dimethylsulfamoyl)-13-methoxy-N^2,N^2,N^3a,N^3a-tetramethyl-1,14b-dihydroindolo[2,1-a]pyrrolo[3,4-d][2]benzazepine-2,3a,7(3H,4H)-tricarboxamide]
- EC50 (HCV replicon cells; reported as class): 0.02 to 0.5 µM
- IC50 (HCV NS5B; reported as class): 0.02 to 0.5 µM

Compound: COc1ccc2c(c1)C1CN(C(C)=O)CC1(C(=O)N(C)C)Cn1c-2c(C2CCCCC2)c2ccc(C(=O)NS(=O)(=O)N(C)C)cc21 (racemic) [Example 9, rac-(3aR,14bR)-2-acetyl-10-cyclohexyl-N^7-(dimethylsulfamoyl)-13-methoxy-N^3a,N^3a-dimethyl-1,2,3,14b-tetrahydroindolo[2,1-a]pyrrolo[3,4-d][2]benzazepine-3a,7(4H)-dicarboxamide]
- EC50 (HCV replicon cells; reported as class): 0.02 to 0.5 µM
- IC50 (HCV NS5B; reported as class): 0.02 to 0.5 µM

Compound: COc1ccc2c(c1)C1CN(C)CC1(C(=O)N(C)C)Cn1c-2c(C2CCCCC2)c2ccc(C(=O)NS(=O)(=O)N(C)C)cc21 (racemic) [Example 10, rac-(3aR,14bR)-10-Cyclohexyl-N^7-(dimethylsulfamoyl)-13-methoxy-N^3a,N^3a,2-trimethyl-1,2,3,14b-tetrahydroindolo[2,1-a]pyrrolo[3,4-d][2]benzazepine-3a,7(4H)-dicarboxamide]
- EC50 (HCV replicon cells): 0.026 µM
- IC50 (HCV NS5B): 0.037 µM
